Experimental data: patent US20220023389A1, “VASODILATORS FOR USE IN THE TREATMENT OF A RETINAL ISCHEMIC DISORDER” (University of Copenhagen, priority 2018, published 2022)
Where no end group is shown, it is not given here.

Key:
[1] = biological target: calcitonin receptor-like receptor (CLR) in complex with receptor activity-modifying protein 1 (RAMP1) (Homo sapiens, UniProt O60894+Q16602); settings: removal of residues 1-7; cited from earlier work
[2] = system: retina (photoreceptors, bipolar cells); assay: Electroretinography (scotopic A-wave and B-wave amplitude) after ET-1 induced retinal ischemia; assay type: in vivo, Sprague dawley rat; settings: day 21, ET-1 induced ischemia right eye (5 μL 500 μM), ET-1 alone/vehicle
Description: Rats were anesthetized with 90 mg/kg ketamine & 10 mg/kg xylazine (i.p). Oxybuprocain 0.4% Anesthetic was applied topically to the eyes.
Guided under a stereoscopic microscope to avoid lens and retinal injury, 5 μl intravitreal injection of 500 uM ET-1 (Phoenix Pharmaceuticals, Inc.) was performed using a digital controller and UltraMicroPump III, with NanoFil 10 μl syringe (WPI) connected to intraoucular injector with a 34 g bevelled needle.
Injection was performed through the sclera, inserted approximately 1 mm posterior to the corneal limbus at a 45° angle to avoid contact with the lens capsule and direct the contents, 1.5 mm into the vitreous chamber, in the right eye (FIG. 1). The needle remained in the vitreous cavity for 30 seconds after injection and was then gently withdrawn. […]
Day 0—ET-1 is administered intravitreally alone or in combination with the current invention. Fundus is recorded before and after injection. […]
After overnight dark adaptation for at least 12 hours, the animals were anesthetized with 90 mg/kg ketamine and 10 mg/kg xylazine delivered by a single intraperitoneal injection. […] ERGs were recorded from both eyes simultaneously with a gold wire electrode loops, placed on the corneal apex, with a drop of saline applied to the corneal surface for hydration during the testing procedure. […] The scotopic A-wave amplitude and B-wave amplitude were recorded and evaluated.

calcitonin receptor-like receptor (CLR) in complex with receptor activity-modifying protein 1 (RAMP1), sequence (Q16602 23-461): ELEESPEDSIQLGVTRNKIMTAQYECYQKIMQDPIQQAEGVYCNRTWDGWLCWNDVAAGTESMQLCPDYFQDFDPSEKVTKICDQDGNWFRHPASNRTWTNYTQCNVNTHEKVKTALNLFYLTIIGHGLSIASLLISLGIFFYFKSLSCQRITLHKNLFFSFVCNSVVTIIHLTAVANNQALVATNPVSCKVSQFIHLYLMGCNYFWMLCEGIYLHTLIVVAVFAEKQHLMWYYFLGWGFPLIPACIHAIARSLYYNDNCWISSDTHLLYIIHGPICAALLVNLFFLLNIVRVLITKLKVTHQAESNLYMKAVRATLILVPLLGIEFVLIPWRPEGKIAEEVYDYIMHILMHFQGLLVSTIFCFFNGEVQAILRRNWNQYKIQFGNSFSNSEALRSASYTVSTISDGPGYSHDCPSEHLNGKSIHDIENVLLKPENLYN
calcitonin receptor-like receptor (CLR) in complex with receptor activity-modifying protein 1 (RAMP1), sequence (O60894 27-148): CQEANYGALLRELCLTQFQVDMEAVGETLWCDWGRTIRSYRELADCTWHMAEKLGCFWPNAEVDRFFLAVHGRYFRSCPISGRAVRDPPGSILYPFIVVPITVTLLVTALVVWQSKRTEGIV

| Substance | binding potency relative to CGRP (less potent) [1] | efficacy [1] | avg. max A-wave amplitude [2] | avg. max B-wave amplitude [2] |
| --- | --- | --- | --- | --- |
| CGRP8-37 | approximately 10 fold | lost all efficacy | – | – |
| Endothelin-1 (CSCSSLMDKECVYFCHLDIIW; ends and bridges not checked; cysteine pairing not given here; UniProt P05305 53-73, looked up) [ET-1, vasoconstrictive peptide injected intravitreally to induce retinal ischemia] | – | – | 457±40 μV | 804±188 μV |
